# Entries after “also recorded” stand apart in the source; their conditions may differ. Where two headings read alike, the source gives them in different places.
# Experiments:
# [1] = cited from earlier work
# [2] = tested on: Gli1-dependent luciferase expression in Shh-LIGHTII cells; conditions: cited from earlier work
# [3] = Stability towards acidic conditions; type: physicochemical; conditions: pH approximately 1 (MeOH, 1 M HCl), 1H NMR compared with pure compound
# Protocol: Finally, we studied the stability of all newly synthesized compounds towards acidic conditions. Therefore, they were exposed to a pH of approximately 1 (MeOH, 1 M HCl) for 24 h. After evaporation of all volatiles, ^1H NMR spectra were acquired and compared to the initially obtained spectra of the pure compounds. […] This experiment emphasizes the importance of the C-21 methyl group for the stability of exo-cyclopamine derivatives. All synthesized compounds, the number of steps required, and the respective overall yield starting from 3 or 14, as well as their biological activity and stability under acidic conditions are summarized in Table 1.
# [4] = tested on: Gli1-dependent luciferase expression in Shh-LIGHTII cells; test: Gli1-reporter gene assay (luciferase) in Shh-LIGHTII cells; type: cell-based, mouse; conditions: for IC50: Mus musculus, Shh Light II, 48 h, read-out: Potency in Gli-assay (IC50); for Activity in Gli1-dependent luciferase assay (in words): concentration range 0.01 μM to 10 μM
# Protocol: Next, we examined all synthesized compounds for their ability to inhibit the Gli1-dependent luciferase expression in Shh-LIGHTII cells, a clonal mouse fibroblast cell line which stably incorporates a Gli-dependent firefly luciferase reporter and a constitutive Renilla luciferase reporter. The compounds were tested in a concentration range from 0.01 μM to 10 μM.
# Data were obtained from three independent experiments and represent the mean ± standard deviation.
# The interference of the exo-cyclopamine derivatives with the hedgehog signaling pathway was tested in an established reporter gene assay based on the inhibition of the target gene Gli1. Shh-LIGHTII cells (ATCC CRL-2795, LGC, Wesel, Germany) represent a clonal mouse fibroblast cell line (NIH 3T3), which stably incorporates a Gli-dependent firefly luciferase reporter and a constitutive Renilla luciferase reporter. They were grown in […] cell culture flasks at 37 °C in a humid atmosphere with 5% CO2. Cell growth medium […] (Dulbecco's Modified Eagle's Medium, high glucose, sodium pyruvate, w/o glutamine), ZeocinTM Selection Reagent and Geneticin® Selection Antibiotic (G418 sulfate) were obtained from Invitrogen. Additive L-glutamin and trypsin were obtained from PAA. VerseneTM chelating agent was obtained from Gibco, bovine fetal serum (FBS) from Sigma. The cell freeze medium contained 5% DMSO in complete growth medium. The cell number was counted using a Neubauer-Zählkammer (Hemocytometer).
# (§1) […] (high glucose, sodium pyruvate, w/o glutamine) supplemented with 0.5% FBS, 4 mM L-glutamin and 50 mM HEPES buffer (4-(2-hydroxyethyl)-1-piperazine ethanesulfonic acid) (pH 7.4) was used as incubation medium. The measurement of reporter gene and constitutive Renilla luminescence was performed with the Dual Luciferase® reporter system according to the manufacturer’s instructions (Promega, Mannheim, Germany) using a GENios reader (TECAN, Crailsheim, Germany).
# Luciferase reporter assay.
# For performing the assay, Shh-LIGHTII cells were grown to reach 80% confluence, washed twice with Versene, detached with 2 mL trypsin for not longer than 2 min and resuspended in 8 mL of growth medium. After centrifugation for 3 min, the supernatant was removed and the cell pellet dissolved in approximately 10 mL of growth medium. Finally, 20,000 to 100,000 cells per well were cultured in a 24-well plate for 48 h. For exposure to the derivatives the growth medium was removed and the cells were exposed to the compound in 500 μL/well incubation medium for 48 h. Stock solutions were prepared in EtOH and introduced in different concentrations into the incubation medium to reach a final solvent concentration of 0.05%. Due to the assay principle, Shh-LIGHTII cells had to be co-exposed to 100 nM of SAG (Smoothened agonist) for determining the inhibitory activity of the compounds. A SAG stock solution was prepared in EtOH and introduced into the medium. The final EtOH concentration – introduced by SAG and the test compound – was 0.1%. As a positive control a 100 nM SAG solution in incubation medium (0.1% EtOH) was used, negative controls were treated with EtOH […]
# Performing the luciferase measurement.
# After 48 h of incubation cells were washed with 500 μL PBS (phosphate buffered saline, w Mg/Ca, Invitrogen) and afterwards incubated for 15 min with 100 μL 1 x passive lysis buffer on a shaker. The lysed cells together with lysis solution were transferred into 1.5 mL reaction tubes, centrifuged for 1 min at 4 °C and kept on ice until further use. At first, the blank of luminescence of a 96-well plate (flat bottom, white, Greiner bio-one) was recorded. Then, 100 μL luciferase assay reagent and 10 μL cell supernatant were mixed per well and the luminescence of firefly luciferase was recorded. Addition of 100 μL Stop&Glo® reagent permitted the recording
# [5] = tested on: Shh-LIGHTII cells; test: Cytotoxicity observed in the reporter gene assay; type: cell-based, mouse; conditions: in the concentration range tested (0.01 μM to 10 μM)
# Protocol: Given the negative test results of compounds 8 and 9 it becomes evident that the F-ring is necessary for bioactivity. The piperidine moiety provides a rather rigidly placed nitrogen atom. Nevertheless, a pyrrolidine as in compound 23 still provides the correct orientation of the nitrogen atom.
# The interference of the exo-cyclopamine derivatives with the hedgehog signaling pathway was tested in an established reporter gene assay based on the inhibition of the target gene Gli1. […] The cell number was counted using a Neubauer-Zählkammer (Hemocytometer).
# as §1, with “Germany). […]” for “Germany).”
# After 48 h of incubation cells were washed with 500 μL PBS (phosphate buffered saline, w Mg/Ca, Invitrogen) and afterwards incubated for 15 min with 100 μL 1 x passive lysis buffer on a shaker. […] At first, the blank of luminescence of a 96-well plate (flat bottom, white, Greiner bio-one) was recorded. […]
# [6] = read-out: Potency in Gli-assay, previously synthesized and biologically evaluated
# [7] = Shh-LIGHTII cells, co-exposed to 100 nM SAG, tested 0.01 μM to 10 μM, mean ± standard deviation of three independent experiments
Compound,"Stability towards acid (pH ~1, 24 h) [3]","IC50 [4, 7] [µM]",Activity in Gli1-dependent luciferase assay (in words) [4],further results
"CC1=C2C[C@H]3[C@@H](CC=C4C[C@@H](O)CC[C@@]43C)[C@@H]2CC[C@]12O[C@@H]1C[C@H](C)CN[C@H]1[C@H]2C [Compound 1, cyclopamine]",–,–,–,"pH at which decomposition occurs ([1]; low metabolic stability (decomposition)): < 3; Stability towards acid (pH ~1, 24 h) ([1]; previously synthesized and evaluated compounds): decomp.; IC50 ([2]; read-out: Potency (IC50) as inhibitor of hedgehog signaling, introductory statement, no assay details printed): ~5 µM; IC50 [2, 6]: 5 µM"
"C=C1[C@@H]2C[C@H]3[C@@H](CC=C4C[C@@H](O)CC[C@@]43C)[C@@H]2CC[C@]12O[C@@H]1C[C@H](C)CN[C@H]1[C@H]2C [Compound 2, exo-cyclopamine]",–,–,–,"IC50 [2, 6]: 0.5 µM"
"C=C1C2CC3C(CC=C4CC(O)CCC43C)C2CCC12OC1CC(C)CNC1C2C (stereo not drawn) [Compound 5, 25-epi-exo-cyclopamine]",remained unchanged; also recorded: stable,3.29 ± 0.31,–,–
"C=C1CNC2C(C1)OC1(CCC3C(CC4C3CC=C3CC(O)CCC34C)C1=C)C2C (stereo not drawn) [Compound 6, bis-exo-cyclopamine]",–,0.2 ± 0.01,–,Potency relative to parent compound (cyclopamine) ([4]; surpasses potency of parent compound): 25 fold
C=C1[C@@H]2C[C@H]3[C@@H](CC=C4C[C@@H](O)CC[C@@]43C)[C@@H]2CC[C@]12OC[C@@H](NCC)[C@H]2C [Compound 8],remained unchanged; also recorded: stable,> 10,no activity,Cytotoxicity [5]: induced cytotoxicity
C=C1[C@@H]2C[C@H]3[C@@H](CC=C4C[C@@H](O)CC[C@@]43C)[C@@H]2CC[C@]12OC[C@@H](N)[C@H]2C [Compound 9],remained unchanged; also recorded: stable,> 10,no activity,Cytotoxicity [5]: induced cytotoxicity
"C=C1CN[C@H]2C[C@@]3(CC[C@H]4[C@@H]5CC=C6C[C@@H](O)CC[C@]6(C)[C@H]5C[C@H]4C3=C)O[C@@H]2C1 [Compound 19, 20-demethyl-bis-exo-cyclopamine]",showed decomposition; also recorded: decomp,–,no activity; also recorded: completely inactive,IC50 [4]: > 10 µM
"C=C1C2CC3C(CC=C4CC(O)CCC43C)C2CCC12CC1NCCC1O2 (stereo not drawn) [Compound 23, F-nor-20,25-bis-demethyl-exo-cyclopamine]",showed decomposition; also recorded: decomp,6.4 ± 0.9,–,–
